Legend:
Assay type in all cases: cell-based
MDA-MB-453 = assay: CCK-8 tumor cell proliferation, MDA-MB-453; settings: Homo sapiens, MDA-MB-453 cells, 72 hours
Procedure: (§1) Tumor cells (see Table 2 to Table 5) were inoculated in 96-well plates in complete culture medium (2000-3000 cells/well). After overnight incubation, the compounds with different concentrations (0.000508 μM-10 μM) were used to treat the cells separately for 72 hours. CCK-8 (Cell Counting Kit 8, Dojindo Laboratories, Kumamoto, Japan) experiment was used to evaluate cell proliferation. GraphPad Prism 5.0 software (La Jolla, CA) was used to calculate the half-maximal inhibitory concentration (IC50) values by fitting the concentration response curve. Each IC50 value was represented as an average value±SD.

Bel-7402 = assay: CCK-8 tumor cell proliferation, Bel-7402; settings: Homo sapiens, Bel-7402 cells, 72 hours
Procedure: as §1

AKT3 = AKT3 (Homo sapiens, UniProt Q9Y243); assay: Western Blot, degradation of AKT3 protein in H1975-OR cells; design: endogenous in cells; host or cells: H1975-OR (osimertinib-resistant H1975); settings: 1000 nM, 24 hours, maximum degradation rate
Summary of the method: (§2)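 H1975-OR cells are Osimertinib-resistant H1975, adapted stepwise from 50 nM to 3 μM Osimertinib. Cells were treated with compound for 24 h, lysed, and immunoblotted with ECL detection. Band grayscale density was quantified.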

AKT1 = molecular target: T1, AKT1 (Homo sapiens, UniProt P31749); assay: Western Blot, degradation of AKT1 protein in H1975-OR cells; settings: 1000 nM, 24 hours, maximum degradation rate
T1 construct: AKT1, AKT2, and AKT3 proteins in H1975-OR cells; endogenous in cells; host or cells: H1975-OR (osimertinib-resistant H1975)
Summary of the method: as §2

H1975OR = assay: CCK-8 tumor cell proliferation, H1975OR; settings: H1975OR cells (Osimertinib resistant), 72 hours
Summary of the method: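 Osimertinib-resistant H1975 cells, selected by raising Osimertinib stepwise from 50 nM to 3 μM, were treated for 72 h with compound at 0.000508–10 μM. Proliferation was read by CCK-8, and IC50 came from fitting the concentration–response curve, given as mean ± SD.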

BT-549 = assay: CCK-8 tumor cell proliferation, BT-549; settings: Homo sapiens, BT-549 cells, 72 hours
Procedure: as §1

AKT2 = molecular target: T2, AKT2 (Homo sapiens, UniProt P31751); assay: Western Blot, degradation of AKT2 protein in H1975-OR cells; settings: 1000 nM, 24 hours, maximum degradation rate
T2 construct: AKT1, AKT2, and AKT3 proteins in H1975-OR cells; endogenous in cells; host or cells: H1975-OR (osimertinib-resistant H1975)
Summary of the method: as §2

MDA-MB-231 = assay: CCK-8 tumor cell proliferation, MDA-MB-231; settings: Homo sapiens, MDA-MB-231 cells, 72 hours
Procedure: as §1

H1975 = assay: CCK-8 tumor cell proliferation, H1975; settings: Homo sapiens, NCI-H1975, H1975 cells, 72 hours
Summary of the method: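 Tumor cells grown in complete medium are exposed for 72 hours to compounds spanning 0.000508 μM to 10 μM. Viability is read by CCK-8 and IC50 derived by concentration-response fitting.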

Huh7 = assay: CCK-8 tumor cell proliferation, Huh7; settings: Homo sapiens, Huh-7, Huh7 cells, 72 hours
Procedure: as §1

HCC1937 = assay: CCK-8 tumor cell proliferation, HCC1937; settings: Homo sapiens, HCC1937 cells, 72 hours
Procedure: as §1

A431 = assay: CCK-8 tumor cell proliferation, A431; settings: Homo sapiens, A-431, A431 cells, 72 hours
Procedure: as §1

HCC827 = assay: CCK-8 tumor cell proliferation, HCC827; settings: Homo sapiens, HCC827 cells, 72 hours
Procedure: as §1

H1299 = assay: CCK-8 tumor cell proliferation, H1299; settings: Homo sapiens, NCI-H1299, H1299 cells, 72 hours
Procedure: as §1

PC-9 = assay: CCK-8 tumor cell proliferation, PC-9; settings: Homo sapiens, PC-9 cells, 72 hours
Procedure: as §1

Chain of AKT3 (Q9Y243 whole entry): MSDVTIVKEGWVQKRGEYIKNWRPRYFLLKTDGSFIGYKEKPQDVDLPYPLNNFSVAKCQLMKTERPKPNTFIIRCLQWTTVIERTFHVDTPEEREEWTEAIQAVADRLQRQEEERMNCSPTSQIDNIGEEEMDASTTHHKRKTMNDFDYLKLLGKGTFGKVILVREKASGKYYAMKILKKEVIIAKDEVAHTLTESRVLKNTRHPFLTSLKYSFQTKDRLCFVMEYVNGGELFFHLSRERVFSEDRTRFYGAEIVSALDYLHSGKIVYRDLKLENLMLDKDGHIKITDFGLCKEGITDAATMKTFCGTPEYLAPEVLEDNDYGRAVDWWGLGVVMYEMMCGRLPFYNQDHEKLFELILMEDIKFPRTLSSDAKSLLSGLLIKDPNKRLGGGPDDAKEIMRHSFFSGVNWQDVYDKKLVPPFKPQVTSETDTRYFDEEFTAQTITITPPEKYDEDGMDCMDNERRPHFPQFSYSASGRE
T2 sequence (P31751 whole entry): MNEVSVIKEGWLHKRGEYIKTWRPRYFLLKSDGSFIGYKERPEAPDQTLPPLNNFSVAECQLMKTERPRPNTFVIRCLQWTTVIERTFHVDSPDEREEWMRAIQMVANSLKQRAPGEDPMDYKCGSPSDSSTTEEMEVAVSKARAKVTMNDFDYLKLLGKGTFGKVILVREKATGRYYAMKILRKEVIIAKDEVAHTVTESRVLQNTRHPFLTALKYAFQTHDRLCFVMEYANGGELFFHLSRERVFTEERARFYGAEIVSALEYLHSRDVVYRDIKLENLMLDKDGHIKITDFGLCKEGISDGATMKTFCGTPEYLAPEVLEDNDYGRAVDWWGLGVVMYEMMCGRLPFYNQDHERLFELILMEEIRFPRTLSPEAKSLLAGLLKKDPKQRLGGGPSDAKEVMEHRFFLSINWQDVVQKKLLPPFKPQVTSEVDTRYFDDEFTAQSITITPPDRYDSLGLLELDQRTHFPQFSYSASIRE
T1 sequence (P31749 whole entry): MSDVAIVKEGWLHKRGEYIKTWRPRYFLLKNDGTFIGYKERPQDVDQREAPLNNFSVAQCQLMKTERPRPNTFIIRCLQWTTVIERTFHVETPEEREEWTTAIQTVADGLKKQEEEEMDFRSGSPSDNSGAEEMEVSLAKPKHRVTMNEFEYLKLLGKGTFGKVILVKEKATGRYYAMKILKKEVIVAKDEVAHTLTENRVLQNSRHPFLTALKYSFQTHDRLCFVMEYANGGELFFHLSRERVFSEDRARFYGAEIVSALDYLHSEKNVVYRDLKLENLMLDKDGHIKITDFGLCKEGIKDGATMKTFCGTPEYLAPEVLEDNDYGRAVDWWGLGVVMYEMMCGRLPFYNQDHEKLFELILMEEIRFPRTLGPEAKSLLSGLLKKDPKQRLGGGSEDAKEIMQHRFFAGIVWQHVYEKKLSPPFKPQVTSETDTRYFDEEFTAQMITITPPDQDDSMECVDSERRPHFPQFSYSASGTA

SMILES	Dmax at 1 µM (AKT3) [%]	Dmax at 1 µM (AKT1) [%]	IC50 (H1975OR) [µM]	IC50 (BT-549) [µM]	Dmax at 1 µM (AKT2) [%]	IC50 (H1975) [µM]	IC50 (Huh7) [µM]	also measured
COc1cc(N2CCN(CCCCCCCCCCCCNC(=O)CC34CC5CC(CC(C5)C3)C4)CC2)ccc1Nc1ncc2c(C)cc(=O)n(-c3cccc(NCC4CC4)c3)c2n1 [ZX-HYT-19, 2-((3R, 5R, 7R)-adamantan-1-yl)-N-(12-(4-(4-(8-(3-((cyclopropylmethyl)amino)phenyl)-5-methyl-7-oxy-7,8-dihydropyridino [2,3-d]pyrimidin-2-yl)amino)-3-methoxyphenyl)piperazin-1-yl) dodecyl) acetamide]	28	0	3.46	0.00421	0	2.29	–	IC50 (MDA-MB-453): > 10 µM; IC50 (Bel-7402): 0.041 µM; IC50 (MDA-MB-231): < 0.001 µM
COc1cc(N2CCN(C(=O)NC34CC5CC(CC(C5)C3)C4)CC2)ncc1Nc1ncc2c(C)cc(=O)n(-c3cccc(NC(=O)C4CC4)c3)c2n1 [ZX-HYT-71, N-((3S, 5S, 7S)-adamantan-1-yl)-4-(5-((8-(3-(cyclopropaneformamido)phenyl)-5-methyl-7-oxy-7,8-dihydropyridino [2,3-d]pyrimidin-2-yl)amino)-4-methoxypyridin-2-yl) piperazin-1-formamide]	–	–	–	1.25	–	–	> 10	–
COc1cc(N2CCN(C(=O)C34CC5CC(CC(C5)C3)C4)CC2)ncc1Nc1ncc2c(C)cc(=O)n(-c3cccc(NC(=O)C4CC4)c3)c2n1 [ZX-HYT-72, N-(3-(2-((6-(4-((3R, 5R, 7R)-adamantan-1-carbonyl)piperazin-1-yl)-4-methoxypyridin-3-yl)amino)-5-methyl-7-oxypyridino [2,3-d]pyrimidin-8 (7H)-yl)phenyl) cyclopropane formamide]	–	–	–	0.626	–	–	3	–
COc1cc(N2CCN(C(=O)CC34CC5CC(CC(C5)C3)C4)CC2)ncc1Nc1ncc2c(C)cc(=O)n(-c3cccc(NC(=O)C4CC4)c3)c2n1 [ZX-HYT-70, N-(3-(2-((6-(4-(2-((3R, 5R, 7R)-adamantan-1-yl)acetyl)piperazin-1-yl)-4-methoxypyridin-3-yl))amino)-5-methyl-7-oxypyridino [2,3-d]pyrimidin-8 (7H)-yl) phenyl) cyclopropane formamide]	–	–	–	1.02	–	–	> 10	–
COc1nc(N2CCN(C(=O)CC34CC5CC(CC(C5)C3)C4)CC2)ccc1Nc1ncc2c(C)cc(=O)n(-c3cccc(NC(=O)C4CC4)c3)c2n1 [ZX-HYT-67, N-(3-(2-(6-(4-(2-((3R, 5R, 7R)-adamantan-1-yl)acetyl)piperazin-1-yl)-2-methoxypyridin-3-yl))amino)-5-methyl-7-oxypyridino [2,3-d] pyrimidin-8 (7H)-yl) phenyl) cyclopropane formamide]	–	–	–	0.376	–	–	> 10	–
COc1cc(N2CCC(C(=O)NCC34CC5CC(CC(C5)C3)C4)CC2)ccc1Nc1ncc2c(C)cc(=O)n(-c3cccc(NC(=O)C4CC4)c3)c2n1 [ZX-HYT-89, N-(((3R, 5R, 7R)-adamantan-1-yl)methyl)-1-(4-((8-(3-(cyclopropaneformamido)phenyl)-5-methyl-7-oxy-7,8-dihydropyridino [2,3-d]pyrimidin-2-yl)amino)-3-methoxyphenyl) piperidin-4-formamide]	–	–	–	0.0267	–	–	0.12	–
COc1cc(N2CCN(C(=O)NC34CC5CC(CC(C5)C3)C4)CC2)ccc1Nc1ncc2c(C)cc(=O)n(-c3cccc(NC(=O)C4CC4)c3)c2n1 [ZX-HYT-64, N-((3S, 5S, 7S)-adamantan-1-yl)-4-(4-((8-(3-(cyclopropaneformamido)phenyl)-5-methyl-7-oxy-7,8-dihydropyridino [2,3-d]pyrimidin-2-yl)amino)-3-methoxyphenyl) piperazin-1-formamide]	–	–	–	0.141	–	–	–	IC50 (MDA-MB-453): > 10 µM; IC50 (Bel-7402): 0.37 µM; IC50 (HCC1937): 4 µM; IC50 (MDA-MB-231): 0.0152 µM
COc1nc(N2CCN(C(=O)NC34CC5CC(CC(C5)C3)C4)CC2)ccc1Nc1ncc2c(C)cc(=O)n(-c3cccc(NC(=O)C4CC4)c3)c2n1 [ZX-HYT-68, N-((3S, 5S, 7S)-adamantan-1-yl)-4-(5-((8-(3-(cyclopropaneformamido)phenyl)-5-methyl-7-oxy-7,8-dihydropyridino [2,3-d]pyrimidin-2-yl)amino)-6-methoxypyridin-2-yl) piperazin-1-formamide]	–	–	–	0.0386	–	–	> 10	–
COc1nc(N2CCN(C(=O)C34CC5CC(CC(C5)C3)C4)CC2)ccc1Nc1ncc2c(C)cc(=O)n(-c3cccc(NC(=O)C4CC4)c3)c2n1 [ZX-HYT-69, N-(3-(2-((6-(4-((3R, 5R, 7R)-adamantan-1-carbonyl)piperazin-1-yl)-2-methoxypyridin-3-yl)amino)-5-methyl-7-oxypyridino [2,3-d]pyrimidin-8 (7H)-yl)phenyl) cyclopropane formamide]	–	–	–	3	–	–	> 10	–
COc1cc(N2CC3(CN(C(=O)CC45CC6CC(CC(C6)C4)C5)C3)C2)ccc1Nc1ncc2c(C)cc(=O)n(-c3cccc(NC(=O)C4CC4)c3)c2n1 [ZX-HYT-91, N-(3-(2-((4-(6-(2-((3R,5R,7R)-adamantan-1-yl)acetyl)-2,6-diazospira [3.3]hept-2-yl))-2-methoxyphenyl)amino)-5-methyl-7-oxypyridino [2,3-d]pyrimidin-8 (7H)-yl) phenyl) cyclopropane formamide]	–	–	–	0.937	–	–	3	–
CCC(=O)Nc1cccc(-n2c(=O)cc(C)c3cnc(Nc4ccc(N5CCN(CCCCCCCCCCCCNC(=O)CC67CC8CC(CC(C8)C6)C7)CC5)cc4OC)nc32)c1 [ZX-HYT-08, N-(3-(2-((4-(4-(12-(2-((3R, 5R, 7R)-adamantan-1-yl)acetylamino)dodecyl)piperazin-1-yl)-2-methoxyphenyl)amino)-5-methyl-7-oxypyridino [2,3-d]pyrimidin-8 (7H)-yl)phenyl) propionamide]	66.8	0	0.0107 ± 0.003	–	0	8.47	–	IC50 (A431): 0.00986 ± 0.0022 µM; IC50 (HCC827): 0.157 ± 0.0679 µM; IC50 (H1299): 0.212 ± 0.0153 µM; IC50 (PC-9): 0.109 ± 0.019 µM
COc1cc(N2CCN(CCCCCCCCCCCCNC(=O)CC34CC5CC(CC(C5)C3)C4)CC2)ccc1Nc1ncc2c(C)cc(=O)n(-c3cccc(NC(=O)C(C)(C)C)c3)c2n1 [ZX-HYT-12]	75.4	56	0.136 ± 0.0165	–	0	0.554 ± 0.213	–	IC50 (A431): 0.155 ± 0.0075 µM; IC50 (HCC827): 0.549 ± 0.247 µM; IC50 (H1299): 2.17 ± 0.419 µM; IC50 (PC-9): 0.466 ± 0.0241 µM
C=CC(=O)Nc1cccc(-n2c(=O)cc(C)c3cnc(Nc4ccc(N5CCN(CCCCCCCCNC(=O)CC67CC8CC(CC(C8)C6)C7)CC5)cc4OC)nc32)c1 [ZX-HYT-03, N-(3-(2-((4-(4-(8-(2-(((3R, 5R, 7R)-adamantan-1-yl)acetamido)octyl)piperazin-1-yl)-2-methoxyphenyl)amino)-5-methyl-7-oxypyridino [2,3-d]pyrimidin-8 (7H)-yl)phenyl)acrylamide]	89.1	78.9	0.074 ± 0.004	–	64.8	0.844 ± 0.822	–	IC50 (A431): 0.0299 ± 0.0028 µM; IC50 (HCC827): 0.0954 ± 0.0331 µM; IC50 (H1299): 0.876 ± 0.283 µM; IC50 (PC-9): 0.0536 ± 0.00753 µM

— patent US20240132492A1, “PYRIDOPYRIMIDINE-BASED COMPOUND AND APPLICATION THEREOF” (JINAN UNIVERSITY, priority 2021, published 2024)
